Reference: patent US9371320B2, “Heterocyclic compound” (TAKEDA PHARMACEUTICAL COMPANY LIMITED, priority 2012, dated 2016)

Key:
JAK1 = target: T1, JAK1 (Homo sapiens, UniProt P23458); experiment: JAK1 enzyme inhibition test (LANCE method); format: biochemical; settings: for inhibition at 1 µM: test compound 1 μM, read-out: Inhibitory rate (%) JAK1 1 μM; for inhibition at 10 µM: read-out: Inhibitory rate (%) JAK1 10 μM
T1 construct: purchased Invitrogen
Method: JAK1 Enzyme Inhibition Test
(§1) JAK1 enzyme inhibitory activity of test compounds was measured by LANCE method (PerkinElmer). First, a test compound diluted with assay buffer (50 mM HEPES (pH=7.5), 10 mM MgCl2, 1 mM EGTA, 2 mM DTT, 0.01% Tween20, 0.01% BSA) was added to 384-well plate at 2 μL each. Then, a JAK1 (Invitrogen) solution and a fluorescence-labeled peptide substrate (ULight-JAK1, PerkinElmer) solution diluted with assay buffer at 187.5 ng/mL and 300 nM, respectively were added at 2 μL each. Then, enzyme reaction was started by adding 2 μL each of ATP solution prepared with assay buffer at 150 μM. After the reaction at room temperature for 1 hr, Detection Buffer (PerkinElmer) prepared to be 20 mM EDTA, 4 nM europium-labeled anti-phosphotyrosine antibody (PerkinElmer) was added at 6 μL each. After standing at room temperature for 1 hr, fluorescence intensity (excitation wavelength 340 nm, fluorescence wavelength 665 nm, delay time 100 microsecond) was measured by a plate reader, Envision (PerkinElmer). The inhibitory activity of each compound was calculated as relative value where fluorescence intensity of a well without enzyme is considered as 100% inhibition.

Tyk2 = target: T2, Tyk2 (Homo sapiens, UniProt P29597); experiment: Tyk2 enzyme inhibition test (LANCE method); format: biochemical; settings: test compound 1 μM; for inhibition at 1 µM: read-out: Inhibitory rate (%) Tyk2 1 μM
T2 construct: purchased Invitrogen
Method: Tyk2 Enzyme Inhibition Test
as §1, with “Tyk2 enzyme” for “JAK1 enzyme”, “a Tyk2” for “a JAK1”, “at 375” for “at 187.5”, “at 30” for “at 150”

[1] = test compound 10 μM (Ex. 182-220), beside Tyk2 1 μM

T1 sequence (P23458 whole entry): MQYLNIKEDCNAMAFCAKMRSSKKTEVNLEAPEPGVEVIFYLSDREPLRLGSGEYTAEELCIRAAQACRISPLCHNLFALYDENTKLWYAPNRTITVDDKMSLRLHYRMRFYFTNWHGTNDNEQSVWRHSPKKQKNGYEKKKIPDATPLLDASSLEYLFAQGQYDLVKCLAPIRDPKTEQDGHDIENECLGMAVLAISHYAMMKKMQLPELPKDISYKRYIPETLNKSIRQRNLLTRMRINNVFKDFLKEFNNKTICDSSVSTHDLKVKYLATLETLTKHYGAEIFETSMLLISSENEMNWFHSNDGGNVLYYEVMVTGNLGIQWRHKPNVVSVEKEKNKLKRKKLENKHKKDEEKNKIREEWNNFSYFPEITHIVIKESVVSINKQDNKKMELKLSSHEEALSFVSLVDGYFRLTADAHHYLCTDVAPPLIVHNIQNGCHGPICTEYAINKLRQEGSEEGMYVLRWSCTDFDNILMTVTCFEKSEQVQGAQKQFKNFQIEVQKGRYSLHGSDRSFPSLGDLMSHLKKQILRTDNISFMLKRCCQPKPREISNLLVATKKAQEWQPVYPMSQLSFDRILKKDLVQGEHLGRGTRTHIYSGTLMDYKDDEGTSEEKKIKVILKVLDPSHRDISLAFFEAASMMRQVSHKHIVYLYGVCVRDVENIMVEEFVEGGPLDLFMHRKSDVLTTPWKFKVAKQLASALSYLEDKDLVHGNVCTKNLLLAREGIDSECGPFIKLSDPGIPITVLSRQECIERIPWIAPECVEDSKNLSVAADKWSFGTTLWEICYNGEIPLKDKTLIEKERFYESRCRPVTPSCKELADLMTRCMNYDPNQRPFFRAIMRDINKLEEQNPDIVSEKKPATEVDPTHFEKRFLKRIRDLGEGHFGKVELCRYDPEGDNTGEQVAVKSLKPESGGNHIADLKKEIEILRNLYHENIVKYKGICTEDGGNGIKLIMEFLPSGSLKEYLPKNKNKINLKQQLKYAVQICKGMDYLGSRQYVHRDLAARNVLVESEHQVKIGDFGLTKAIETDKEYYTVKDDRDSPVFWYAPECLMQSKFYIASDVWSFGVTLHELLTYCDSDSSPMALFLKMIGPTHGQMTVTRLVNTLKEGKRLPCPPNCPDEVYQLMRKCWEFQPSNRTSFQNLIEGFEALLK
T2 sequence (P29597 whole entry): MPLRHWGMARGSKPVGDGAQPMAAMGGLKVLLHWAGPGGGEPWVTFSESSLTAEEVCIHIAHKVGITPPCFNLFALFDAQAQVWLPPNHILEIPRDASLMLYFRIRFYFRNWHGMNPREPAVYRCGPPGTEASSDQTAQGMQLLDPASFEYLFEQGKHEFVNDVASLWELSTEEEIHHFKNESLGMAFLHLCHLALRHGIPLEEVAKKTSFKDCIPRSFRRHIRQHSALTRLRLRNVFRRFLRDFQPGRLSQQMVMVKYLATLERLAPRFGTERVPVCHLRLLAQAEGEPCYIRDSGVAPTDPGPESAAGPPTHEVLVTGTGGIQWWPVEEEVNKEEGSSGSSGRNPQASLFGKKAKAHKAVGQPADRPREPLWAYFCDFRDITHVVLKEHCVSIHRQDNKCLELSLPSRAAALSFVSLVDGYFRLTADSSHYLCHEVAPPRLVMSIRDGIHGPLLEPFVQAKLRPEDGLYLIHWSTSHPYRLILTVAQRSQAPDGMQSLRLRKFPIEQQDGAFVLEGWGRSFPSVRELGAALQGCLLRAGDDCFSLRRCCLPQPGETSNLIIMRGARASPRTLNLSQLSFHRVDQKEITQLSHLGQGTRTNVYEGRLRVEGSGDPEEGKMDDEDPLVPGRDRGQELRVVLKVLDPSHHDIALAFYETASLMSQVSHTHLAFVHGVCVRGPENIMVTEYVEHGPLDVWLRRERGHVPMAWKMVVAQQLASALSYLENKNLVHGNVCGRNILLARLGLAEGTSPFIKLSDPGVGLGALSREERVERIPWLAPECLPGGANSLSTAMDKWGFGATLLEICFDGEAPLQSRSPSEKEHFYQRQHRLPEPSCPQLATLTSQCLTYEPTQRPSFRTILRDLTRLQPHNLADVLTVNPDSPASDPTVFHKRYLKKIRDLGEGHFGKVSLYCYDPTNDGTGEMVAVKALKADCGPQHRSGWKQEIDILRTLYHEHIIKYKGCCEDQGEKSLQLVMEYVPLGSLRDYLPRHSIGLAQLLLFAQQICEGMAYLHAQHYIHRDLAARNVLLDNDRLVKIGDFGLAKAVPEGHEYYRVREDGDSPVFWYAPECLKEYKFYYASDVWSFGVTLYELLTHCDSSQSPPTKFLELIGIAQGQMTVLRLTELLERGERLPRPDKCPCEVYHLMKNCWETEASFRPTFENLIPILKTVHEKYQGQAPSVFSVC

Row | SMILES | inhibition at 1 µM (JAK1) [%] | inhibition at 1 µM (Tyk2) [%] | inhibition at 10 µM (JAK1; [1]) [%] | Inhibitory rate (%) JAK1 10 μM (JAK1; [1]) [%] | Inhibitory rate (%) Tyk2 1 μM (Tyk2) [%]
1 | COC(=O)c1cc(-c2cn(C3CCCC3)c3c(C#N)c[nH]c(=O)c23)cs1 [Example 76, methyl 4-(7-cyano-1-cyclopentyl-4-oxo-4,5-dihydro-1H-pyrrolo[3,2-c]pyridin-3-yl)thiophene-2-carboxylate] | 92 | 99 | – | – | –
2 | NC(=O)Cc1ccc(-c2nn(-c3c(F)cccc3F)c3cc[nH]c(=O)c23)cc1 [Example 72, 2-(4-(1-(2,6-difluorophenyl)-4-oxo-4,5-dihydro-1H-pyrazolo[4,3-c]pyridin-3-yl)phenyl)acetamide] | 97 | 99 | – | – | –
3 | NC(=O)c1cc(-c2cn(C3CCCC3)c3c(C(=O)O)c[nH]c(=O)c23)cs1 [Example 61, 3-(5-carbamoyl-3-thienyl)-1-cyclopentyl-4-oxo-4,5-dihydro-1H-pyrrolo[3,2-c]pyridine-7-carboxylic acid] | 8 | 41 | – | – | –
4 | CC(=O)N1CCC(c2ccc(-c3nn(-c4c(F)cccc4F)c4cc[nH]c(=O)c34)cc2)C(F)(F)C1 (stereo not shown) [Example 316, 3-(4-(1-acetyl-3,3-difluoropiperidin-4-yl)phenyl)-1-(2,6-difluorophenyl)-1,5-dihydro-4H-pyrazolo[4,3-c]pyridin-4-one] | 99 | 99 | – | – | –
5 | N#Cc1c[nH]c(=O)c2c(-c3ccsc3)cn(C3CCCC3)c12 [Example 106, 1-cyclopentyl-4-oxo-3-(3-thienyl)-4,5-dihydro-1H-pyrrolo[3,2-c]pyridine-7-carbonitrile] | 91 | 98 | – | – | –
6 | NC(=O)c1cc(-c2cn(C3CCCC3)c3cc[nH]c(=O)c23)cs1 [Example 4, 4-(1-cyclopentyl-4-oxo-4,5-dihydro-1H-pyrrolo[3,2-c]pyridin-3-yl)thiophene-2-carboxamide] | 99 | 99 | – | – | –
7 | NC(=O)c1cc(-c2nn(C3CCC(O)CC3)c3cc[nH]c(=O)c23)cs1 (stereo not shown) [Example 171, 4-(1-(4-hydroxycyclohexyl)-4-oxo-4,5-dihydro-1H-pyrazolo[4,3-c]pyridin-3-yl)thiophene-2-carboxamide] | 100 | 100 | – | – | –
8 | NS(=O)(=O)c1cccc(Nc2nn(C3CCCC3)c3cc[nH]c(=O)c23)c1 [Example 284, 3-((1-cyclopentyl-4-oxo-4,5-dihydro-1H-pyrazolo[4,3-c]pyridin-3-yl)amino)benzenesulfonamide] | 99 | 96 | – | – | –
9 | COC(=O)c1cc(-c2nn(C3CCCC3)c3cc[nH]c(=O)c23)cs1 [Example 12, methyl 4-(1-cyclopentyl-4-oxo-4,5-dihydro-1H-pyrazolo[4,3-c]pyridin-3-yl)thiophene-2-carboxylate] | 98 | 98 | – | – | –
10 | CNC(=O)c1cc(F)cc(-c2nn(-c3c(F)cccc3F)c3c(Cl)c[nH]c(=O)c23)c1 [Example 273, 3-(7-chloro-1-(2,6-difluorophenyl)-4-oxo-4,5-dihydro-1H-pyrazolo[4,3-c]pyridin-3-yl)-5-fluoro-N-methylbenzamide] | 1 | 71 | – | – | –
11 | Cc1ccccc1-n1nc(-c2ccc(S(N)(=O)=O)cc2)c2c(=O)[nH]ccc21 [Example 211, 4-(1-(2-methylphenyl)-4-oxo-4,5-dihydro-1H-pyrazolo[4,3-c]pyridin-3-yl)benzenesulfonamide] | – | 98 | 99 | – | –
12 | CC(=O)c1c[nH]c(=O)c2c(-c3csc(C(N)=O)c3)cn(C3CCCC3)c12 [Example 60, 4-(7-acetyl-1-cyclopentyl-4-oxo-4,5-dihydro-1H-pyrrolo[3,2-c]pyridin-3-yl)thiophene-2-carboxamide] | 50 | 89 | – | – | –
13 | O=c1[nH]cc(Cl)c2c1c(-c1ccc(N3CCOCC3)cc1)nn2-c1c(F)cccc1F [Example 161, 7-chloro-1-(2,6-difluorophenyl)-3-(4-(morpholin-4-yl)phenyl)-1,5-dihydro-4H-pyrazolo[4,3-c]pyridin-4-one] | 79 | 99 | – | – | –
14 | CCC1(O)CCC(n2nc(-c3ccc(S(N)(=O)=O)cc3)c3c(=O)[nH]ccc32)CC1 (stereo not shown) [Example 210, 4-(1-(4-ethyl-4-hydroxycyclohexyl)-4-oxo-4,5-dihydro-1H-pyrazolo[4,3-c]pyridin-3-yl)benzenesulfonamide] | – | – | – | 99 | 97
15 | O=c1[nH]ccc2c1c(-c1cn[nH]c1)nn2C1CCCC1 [Example 204, 1-cyclopentyl-3-(1H-pyrazol-4-yl)-1,5-dihydro-4H-pyrazolo[4,3-c]pyridin-4-one] | – | 98 | 98 | – | –
16 | O=c1[nH]ccc2c1c(-c1csc(N3CCOCC3)c1)nn2-c1c(F)cccc1F [Example 234, 1-(2,6-difluorophenyl)-3-(5-(morpholin-4-yl)-3-thienyl)-1,5-dihydro-4H-pyrazolo[4,3-c]pyridin-4-one] | 99 | 99 | – | – | –
17 | Cc1c[nH]c(=O)c2c(-c3ccc(N4CCOCC4)cc3)nn(-c3c(F)cccc3F)c12 [Example 235, 1-(2,6-difluorophenyl)-7-methyl-3-(4-(morpholin-4-yl)phenyl)-1,5-dihydro-4H-pyrazolo[4,3-c]pyridin-4-one] | 92 | 99 | – | – | –
18 | CNC(=O)C1CCN(c2ccc(-c3nn(-c4c(F)cccc4F)c4cc[nH]c(=O)c34)cc2)CC1 [Example 310, 1-(4-(1-(2,6-difluorophenyl)-4-oxo-4,5-dihydro-1H-pyrazolo[4,3-c]pyridin-3-yl)phenyl)-N-methylpiperidine-4-carboxamide] | 93 | 100 | – | – | –
19 | O=C(NC1CC1)c1cc(-c2nn(C3CCCC3)c3cc[nH]c(=O)c23)cs1 [Example 156, 4-(1-cyclopentyl-4-oxo-4,5-dihydro-1H-pyrazolo[4,3-c]pyridin-3-yl)-N-cyclopropylthiophene-2-carboxamide] | 100 | 100 | – | – | –
20 | NC(=O)c1cc(-n2nc(C3CCCC3)c3cc[nH]c(=O)c32)cs1 [Example 117, 4-(3-cyclopentyl-7-oxo-6,7-dihydro-1H-pyrazolo[3,4-c]pyridin-1-yl)thiophene-2-carboxamide] | 99 | 98 | – | – | –
21 | NC(=O)c1cc(-c2nn(C3CCCC3)c3c(C4CC4)c[nH]c(=O)c23)cs1 [Example 282, 4-(1-cyclopentyl-7-cyclopropyl-4-oxo-4,5-dihydro-1H-pyrazolo[4,3-c]pyridin-3-yl)thiophene-2-carboxamide] | 76 | 85 | – | – | –
22 | NS(=O)(=O)c1ccc(-c2nn(C3CCC(O)(c4ccccc4)CC3)c3cc[nH]c(=O)c23)cc1 (stereo not shown) [Example 174, 4-(1-(4-hydroxy-4-phenylcyclohexyl)-4-oxo-4,5-dihydro-1H-pyrazolo[4,3-c]pyridin-3-yl)benzenesulfonamide] | 99 | 98 | – | – | –
23 | Cc1ccccc1-c1cn(-c2csc(C(N)=O)c2)c2c(=O)[nH]cc(C#N)c12 [Example 102, 4-(4-cyano-3-(2-methylphenyl)-7-oxo-6,7-dihydro-1H-pyrrolo[2,3-c]pyridin-1-yl)thiophene-2-carboxamide] | 67 | 94 | – | – | –
